Experimental data as given in the NIST ThermoML archive (doi:10.1016/j.jct.2013.04.001).

Test: mn = molality of the nth substance listed, in mol/kg
Conditions: 101 kPa, Liquid; for mass density: Pycnometric method; for viscosity: Capillary tube (Ostwald / Ubbelohde) method

N=C(N)NCCC[C@H](N)C(=O)O [L-arginine] + O
Conditions	mass density [kg/m3]	viscosity [mPa·s]
293.15 K, m1 = 0.025	999.51	–
293.15 K, m1 = 0.05	1000.78	–
293.15 K, m1 = 0.075	1002.04	–
293.15 K, m1 = 0.1	1003.3	–
293.15 K, m1 = 0.125	1004.55	–
293.15 K, m1 = 0.15	1005.79	–
293.15 K, m1 = 0.175	1007.02	–
293.15 K, m1 = 0.2	1008.25	–
298.15 K, m1 = 0.025	998.35	0.9009
298.15 K, m1 = 0.05	999.62	0.9108
298.15 K, m1 = 0.075	1000.89	0.9207
298.15 K, m1 = 0.1	1002.14	0.93
298.15 K, m1 = 0.125	1003.4	0.9393
298.15 K, m1 = 0.15	1004.64	0.9486
298.15 K, m1 = 0.175	1005.88	0.9579
298.15 K, m1 = 0.2	1007.11	0.9668
303.15 K, m1 = 0.025	996.96	0.8062
303.15 K, m1 = 0.05	998.24	0.8145
303.15 K, m1 = 0.075	999.51	0.8225
303.15 K, m1 = 0.1	1000.78	0.8304
303.15 K, m1 = 0.125	1002.03	0.838
303.15 K, m1 = 0.15	1003.28	0.8457
303.15 K, m1 = 0.175	1004.53	0.8533
303.15 K, m1 = 0.2	1005.76	0.8609
308.15 K, m1 = 0.025	995.36	0.7267
308.15 K, m1 = 0.05	996.65	0.7336
308.15 K, m1 = 0.075	997.93	0.7403
308.15 K, m1 = 0.1	999.2	0.7471
308.15 K, m1 = 0.125	1000.46	0.7535
308.15 K, m1 = 0.15	1001.72	0.7601
308.15 K, m1 = 0.175	1002.97	0.7664
308.15 K, m1 = 0.2	1004.22	0.7726
313.15 K, m1 = 0.025	993.55	0.6593
313.15 K, m1 = 0.05	994.85	0.6652
313.15 K, m1 = 0.075	996.14	0.6708
313.15 K, m1 = 0.1	997.42	0.6764
313.15 K, m1 = 0.125	998.69	0.6818
313.15 K, m1 = 0.15	999.96	0.6873
313.15 K, m1 = 0.175	1001.22	0.6926
313.15 K, m1 = 0.2	1002.47	0.6976
318.15 K, m1 = 0.025	991.55	0.6031
318.15 K, m1 = 0.05	992.86	0.608
318.15 K, m1 = 0.075	994.16	0.6128
318.15 K, m1 = 0.1	995.45	0.6174
318.15 K, m1 = 0.125	996.74	0.622
318.15 K, m1 = 0.15	998.01	0.6266
318.15 K, m1 = 0.175	999.28	0.6311
318.15 K, m1 = 0.2	1000.55	0.6355
